Values quoted from earlier work as cited in patent publication US6689394B2, “Removal of ectoparasites” (Schering-Plough HealthCare Products, Inc., priority 2001, dated 2004).

Test system: head lice
Details: comparison of published results for topical pesticidal treatments

CC1(C)C(C=C(Cl)Cl)C1C(=O)OCc1cccc(Oc2ccccc2)c1 (stereo not shown) [Permethrin]
evidence of clinical efficacy: sufficient evidence of efficacy
